Test [1] has as its system Phosphorylation of ERK½ in A549 cells. Nature of the test: Phospho-ERK½ MSD Assay in A549 cells. Format: cell-based. To be noted: 4 hours compound treatment, 10 ng/mL EGF for 10 min, read-out: p-ERK IC50 (A549). On the procedure:
(§1) Phospho-ERK½ MSD Assay: MIA PaCa-2 (ATCC® CRL-1420™) and A549 (ATCC® CCL-185™) cells were cultured in RPMI 1640 Medium (ThermoFisher Scientific 11875093) containing 10% fetal bovine serum (ThermoFisher Scientific 16000044) and 1× penicillin-streptomycin-glutamine (ThermoFisher Scientific 10378016). Sixteen hours prior to compound treatment, MIA PaCa-2 or A549 cells were seeded in 96-well cell culture plates at a density of 25,000 cells/well and incubated at 37° C., 5% CO2. A compound dose-response titration was diluted in growth media, added to appropriate wells of a cell culture plate, and then incubated at 37° C., 5% CO2 for 4 hours. Following compound treatment, cells were stimulated with 10 ng/mL EGF (Roche 11376454001) for 10 min, washed with ice-cold Dulbecco's phosphate-buffered saline, no Ca^2+ or Mg^2+ (ThermoFisher Scientific 14190144), and then lysed in RIPA buffer (50 mM Tris-HCl pH 7.5, 1% Igepal, 0.5% sodium deoxycholate, 150 mM NaCl, and 0.5% sodium dodecyl sulfate) containing protease inhibitors (Roche 4693132001) and phosphatase inhibitors (Roche 4906837001). Cell lysates were stored frozen at −80° C. overnight. Phosphorylation of ERK½ in compound-treated lysates was assayed using Phospho-ERK½ Whole Cell Lysate kits (Meso Scale Discovery K151DWD) according to the manufacturer's protocol. Assay plates were read on a Meso Scale Discovery Sector Imager 6000, and data were analyzed using a 4-parameter logistic model to calculate IC50 values.

The target in test [2] is GDP-bound protein (aa 1-169), containing both G12C and C118A amino acid substitutions (Homo sapiens, UniProt P01116, C118A/G12C). Nature of the test: Coupled Nucleotide Exchange Assay (SOS-mediated nucleotide exchange, AlphaScreen). Format: biochemical. The settings on record: 2 hours compound pre-incubation. The gist of the method: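 AlphaScreen signal after SOS (aa 564-1049)/GTP-driven exchange (1 h) on GDP-loaded His-[…] G12C/C118A (aa 1-169), following a 2 h compound pre-incubation in HEPES pH 7.4 buffer with 10 mM MgCl2 and 0.01% Triton X-100. IC50s fitted by 4-parameter logistic model.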

Test [3] concerns Phosphorylation of ERK½ in MIA PaCa-2 cells. Nature of the test: Phospho-ERK½ MSD Assay in MIA PaCa-2 cells. Format: cell-based. The settings on record: 4 hours compound treatment, 10 ng/mL EGF for 10 min, read-out: p-ERK IC50 (MIA PaCa-2). On the procedure: as §1
[4] abbreviates: Homo sapiens, MIA PaCa-2, MIA PaCa-2 cells.

Where two headings read alike, the source gives them in different places. Some results are limits rather than exact numbers.

GDP-bound protein (aa 1-169), containing both G12C and C118A amino acid substitutions, sequence (P01116 1-169 isoform P01116-2 G12C/C118A): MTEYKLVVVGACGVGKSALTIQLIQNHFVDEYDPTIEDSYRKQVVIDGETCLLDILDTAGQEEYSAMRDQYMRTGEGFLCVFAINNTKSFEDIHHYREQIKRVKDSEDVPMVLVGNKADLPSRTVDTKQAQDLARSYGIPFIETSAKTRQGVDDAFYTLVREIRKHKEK

Usually IC50 stands for the point on the concentration scale where inhibition reaches its midpoint. Regarding `C=CC(=O)N1CCN(c2snc3c(F)c(-c4cc(N)ccc4C)c(Cl)cc23)CC1` [Example 3-12, 1-(4-(6-(5-amino-2-methylphenyl)-5-chloro-7-fluoro-2,1-benzothiazol-3-yl)-1-piperazinyl)-2-propen-1-one], the half-inhibitory concentration (IC50) in test [1] (Homo sapiens, A549, A549 cells) is greater than 100000 nM; in test [3] (setting [4]), 7660 nM. For the same compound, the “Coupled exchange IC50” value in test [2] amounted to 2560 nM.
With `C=CC(=O)N1CCN(c2nnc(-c3cccnc3C)c3cc(-c4c(O)cccc4F)c(Cl)cc23)CC1` [Example 10-8], the half-maximal inhibitory concentration (IC50) in test [1] (Homo sapiens, A549, A549 cells) is greater than 100000 nM; in test [3] (setting [4]), 12900 nM. Besides, the “Coupled exchange IC50” value in test [2] is 1340 nM.
In the case of `C=CC(=O)N1CCN(c2snc3c(F)c(-c4c(O)cccc4F)c(Cl)cc23)C(C(F)F)C1` (racemic) [Example 2-9, 1-(4-(5-chloro-7-fluoro-6-(2-fluoro-6-hydroxyphenyl)-2,1-benzothiazol-3-yl)-3-(difluoromethyl)-1-piperazinyl)-2-propen-1-one], the IC50 in test [1] (Homo sapiens, A549, A549 cells) is greater than 100000 nM; in test [3] (setting [4]) it was 747 nM. For the same compound, the “Coupled exchange IC50” value in test [2] was 301 nM.
For the compound `C=CC(=O)N1CCN(c2snc3c(F)c(-c4cc(O)cc5ccccc45)c(Cl)cc23)C(C(=O)O)C1` (stereo not drawn) [Example 22, 1-(5-chloro-7-fluoro-6-(3-hydroxy-1-naphthalenyl)-2,1-benzothiazol-3-yl)-4-(2-propenoyl)-2-piperazinecarboxylic acid], the IC50 in test [1] (Homo sapiens, A549, A549 cells) is greater than 100000 nM; in test [3] (setting [4]), 56100 nM. In addition, the “Coupled exchange IC50” value in test [2] stood at 927 nM.
As to `C=CC(=O)N1CCN(c2snc3c(F)c(-c4cc(O)cc5ccccc45)c(Cl)cc23)CC1` [Example 3-1, 1-(4-(5-Chloro-7-fluoro-6-(3-hydroxynaphthalen-1-yl)benzo[c]isothiazol-3-yl)piperazin-1-yl)prop-2-en-1-one], the IC50 is greater than 100000 nM in test [1] (Homo sapiens, A549, A549 cells) and 3230 nM in test [3] (MIA PaCa-2 cells). Besides, the “Coupled exchange IC50” value in test [2] turned out to be 266 nM.
In the case of `C=CC(=O)N1CCN(c2snc3c(F)c(-c4cc(O)cc5ccccc45)c(Cl)cc23)C(CO)C1` (stereo in doubt) [Example 1-7, 1-((3R)-4-(5-chloro-7-fluoro-6-(3-hydroxy-1-naphthalenyl)-2,1-benzothiazol-3-yl)-3-(hydroxymethyl)-1-piperazinyl)-2-propen-1-one], the IC50 in test [1] (Homo sapiens, A549, A549 cells) was greater than 100000 nM; in test [3] (setting [4]), 1860 nM. In addition, the “Coupled exchange IC50” value in test [2] turned out to be 209 nM.
Turning to `C=CC(=O)N1CC(N(C)c2snc3c(F)c(-c4cc(O)cc5ccccc45)c(Cl)cc23)C1` [Example 5-9, 1-(3-((5-Chloro-7-fluoro-6-(3-hydroxynaphthalen-1-yl)benzo[c]isothiazol-3-yl)(methyl)amino)azetidin-1-yl)prop-2-en-1-one], the half-inhibitory concentration (IC50) in test [1] (Homo sapiens, A549, A549 cells) was greater than 100000 nM; in test [3] (setting [4]), 822 nM. Besides, the “Coupled exchange IC50” value in test [2] came to 139 nM.
Regarding `C=CC(=O)N1CCN(c2snc3c(F)c(-c4c(O)cccc4F)c(Cl)cc23)CC1` [Example 3-6, 1-(4-(5-chloro-7-fluoro-6-(2-fluoro-6-hydroxyphenyl)-2,1-benzothiazol-3-yl)-1-piperazinyl)-2-propen-1-one], the IC50 in test [1] (Homo sapiens, A549, A549 cells) is greater than 100000 nM; in test [3] (setting [4]), 11800 nM. Moreover, the “Coupled exchange IC50” value in test [2] amounted to 1050 nM.
With `C=CC(=O)N1CCN(c2nc(=O)n(-c3ccccc3C(C)C)c3cc(-c4c(O)cccc4F)c(Cl)cc23)CC1` (single isomer, unassigned) [Example 8-1-1, 6-chloro-7-(2-fluoro-6-hydroxyphenyl)-1-(2-(2-propanyl)phenyl)-4-(4-(2-propenoyl)-1-piperazinyl)-2(1H)-quinazolinone], the IC50 in test [1] (A549 cells) amounted to 69800 nM; in test [3] (MIA PaCa-2 cells) it was 46 nM. The “Coupled exchange IC50” value in test [2] came to 172 nM.
Consider `C=CC(=O)N1CCN(c2snc3c(F)c(-c4cc(N)nc5ccccc45)c(Cl)cc23)CC1` [Example 26, 1-(4-(6-(2-amino-4-quinolinyl)-5-chloro-7-fluoro-2,1-benzothiazol-3-yl)-1-piperazinyl)-2-propen-1-one], for which the IC50 in test [1] (Homo sapiens, A549, A549 cells) was greater than 100000 nM; in test [3] (setting [4]) it was 30300 nM. Also, the “Coupled exchange IC50” value in test [2] is 3900 nM.
With `C=CC(=O)N1CCN(c2nc(=O)n(-c3c(CC)cccc3CC)c3nc(-n4nnc5ccccc54)c(Cl)cc23)[C@@H](C)C1` [Example 9-12, 7-(1H-benzotriazol-1-yl)-6-chloro-1-(2,6-diethylphenyl)-4-((2S)-2-methyl-4-(2-propenoyl)-1-piperazinyl)pyrido[2,3-d]pyrimidin-2(1H)-one], the 50% inhibitory concentration (IC50) in test [1] (Homo sapiens, A549, A549 cells) is greater than 100000 nM; in test [3] (setting [4]), 1290 nM. Also, the “Coupled exchange IC50” value in test [2] turned out to be 1320 nM.
Regarding `C=CC(=O)N1CCN(c2nc(=O)n(-c3ccccc3C(C)C)c3cc(-c4ccccc4Cl)c(Cl)cc23)[C@@H](C)C1` [Example 9-11, 6-chloro-7-(2-chlorophenyl)-4-((2S)-2-methyl-4-(2-propenoyl)-1-piperazinyl)-1-(2-(2-propanyl)phenyl)-2(1H)-quinazolinone], the IC50 in test [1] (Homo sapiens, A549, A549 cells) is 64000 nM; in test [3] (setting [4]) it was 147 nM. The “Coupled exchange IC50” value in test [2] came to 93 nM.
As for `C=CC(=O)N1CCN(c2nnc(-c3c(C)ccc4[nH]ncc34)c3cc(-c4c(O)cccc4F)c(Cl)cc23)CC1` [Example 10-12, 1-(4-(7-chloro-6-(2-fluoro-6-hydroxyphenyl)-4-(5-methyl-1H-indazol-4-yl)-1-phthalazinyl)-1-piperazinyl)-2-propen-1-one], the IC50 in test [1] (Homo sapiens, A549, A549 cells) was greater than 100000 nM; in test [3] (setting [4]) it was 72600 nM. The “Coupled exchange IC50” value in test [2] was found to be 912 nM.
Turning to `C=CC(=O)N1CCN(c2snc3c(F)c(-c4nc(N)cc5ccccc45)c(Cl)cc23)CC1` [Example 25, 1-(4-(6-(3-Amino-1-isoquinolinyl)-5-chloro-7-fluoro-2,1-benzothiazol-3-yl)-1-piperazinyl)-2-propen-1-one], the IC50 in test [1] (Homo sapiens, A549, A549 cells) was greater than 100000 nM; in test [3] (setting [4]), 786 nM. In addition, the “Coupled exchange IC50” value in test [2] is 251 nM.
Consider `C=CC(=O)N1CCN(c2nc(=O)n(-c3ccccc3C(C)C)c3cc(-c4cc(O)cc5ccccc45)c(Cl)cc23)CC1` [Example 9-13, 6-chloro-7-(3-hydroxy-1-naphthalenyl)-1-(2-(2-propanyl)phenyl)-4-(4-(2-propenoyl)-1-piperazinyl)-2(1H)-quinazolinone], for which the half-inhibitory concentration (IC50) in test [1] (Homo sapiens, A549, A549 cells) was 12800 nM; in test [3] (setting [4]), 78 nM. Further, the “Coupled exchange IC50” value in test [2] was 306 nM.
In the case of `C=CC(=O)N1CCN(c2nc(=O)n(-c3c(CC)cccc3CC)c3nc(-c4c(O)cccc4F)c(Cl)cc23)[C@@H](C)C1` [Example 8-4, 6-chloro-1-(2,6-diethylphenyl)-7-(2-fluoro-6-hydroxyphenyl)-4-((2S)-2-methyl-4-(2 propenoyl)-1-piperazinyl)pyrido[2,3-d]pyrimidin-2(1H)-one], the IC50 in test [1] (Homo sapiens, A549, A549 cells) is greater than 33300 nM; in test [3] (setting [4]), 17 nM. Further, in test [2], the “Coupled exchange IC50” value amounted to 95 nM.
In the case of `C=CC(=O)N1CCN(c2snc3c(F)c(-c4cc(O)ccc4C)c(Cl)cc23)CC1` [Example 3-8, 1-(4-(5-chloro-7-fluoro-6-(5-hydroxy-2-methylphenyl)-2,1-benzothiazol-3-yl)-1-piperazinyl)-2-propen-1-one], the IC50 is greater than 100000 nM in test [1] (Homo sapiens, A549, A549 cells) and 7050 nM in test [3] (setting [4]). Besides, the “Coupled exchange IC50” value in test [2] came out at 1070 nM.
Regarding `C=CC(=O)N1CCN(c2nc(=O)n(-c3ccccc3C(C)C)c3cc(-c4c(O)cccc4F)c(Cl)cc23)CC1` (single isomer, unassigned) [Example 8-1-2, 6-Chloro-7-(2-fluoro-6-hydroxyphenyl)-1-(2-(2-propanyl)phenyl)-4-(4-(2-propenoyl)-1-piperazinyl)-2(1H)-quinazolinone], the results for the IC50 in test [1] (A549 cells) and in test [3] (MIA PaCa-2 cells) were greater than 100000 nM and 811 nM, respectively. Further, in test [2], the “Coupled exchange IC50” value was 322 nM.
For `C=CC(=O)N1CCN(c2nc(=O)n(-c3ccccc3C(C)C)c3nc(-c4c(O)cccc4F)c(Cl)cc23)[C@@H](C)C1` (single isomer, unassigned) [Example 8-6-1], in that order: greater than 33300 nM, 10 nM and 66 nM.
For the compound `C=CC(=O)N1CCN(c2nc(=O)n(-c3ccccc3C(C)C)c3cc(-c4c(O)cccc4F)c(Cl)cc23)[C@@H](C)C1` (single isomer, unassigned) [Example 8-3-1], the IC50 in test [1] (Homo sapiens, A549, A549 cells) is greater than 100000 nM; in test [3] (MIA PaCa-2 cells) it was 408 nM. Also, in test [2], the “Coupled exchange IC50” value was 282 nM.

The values are drawn from patent US11285135B2 (AMGEN INC., priority 2016, dated 2022).
